Results as given in patent US7150969B2 (Rosetta Inpharmatics LLC, priority 2004, dated 2006).
Each block holds one compound with its values, some of them ahead of it.

Columns and labels:
ACC2sv1 = molecular target: T1, ACC2sv1 (Homo sapiens, UniProt O00763, V2141I); assay: 14CO2 fixation ACC activity assay, ACC2sv1; assay type: biochemical; conditions: 37° C., 40 minutes, pH 7.5, 20 mM citrate; read-out: Km of ACC2sv1 against substrate
T1 construct: to yield a full-length ACC2sv1 clone; made in house; host or cells: mouse mammary carcinoma cell line FM-3A (pEF vector, G418 selection)
Excerpt: (§1) ACC2 and ACC2sv1 clones from cloning Method 2 of Example 2 were digested with AvrII and PmeI restriction enzymes and then subcloned into pEF cDNA expression vector (Invitrogen, Carlsbad, Calif.) which was digested by SpeI and EcoRV. The ACC2 and ACC2sv1 expression vectors were introduced into a mouse mammary carcinoma cell line FM-3A (RIKEN cell bank, #RCB0086) using the Lipofectaimine 2000 (Invitrogen, Carlsbad, Calif.) or Effectene Transfection Reagent (Qiagen, Hilden, Germany), according to manufacturer's instructions. […] ACC2 and ACC2sv1 protein levels were measured by Western blot analysis using HRP-conjugated streptavidin (Invitrogen, Carlsbad, Calif.). […]
(§2) The following protein extraction and purification procedures were performed at 4° C. unless noted. […] The remaining proteins were eluted from the column by imidazole at 0–500 mM, and the elution fractions were monitored by spectrophotometry at 280 nm. ACC1, ACC2, and ACC2sv1 protein and activity in each fraction were measured.
(§3) ACC1, ACC2, and ACC2sv1 activity were measured by a standard ^14CO2 fixation assay that measures the incorporation of [^14C]bicarbonate into [^14C]malonyl-CoA, and separates the product from unused substrate at the end of the reaction through acidification, which serves to both quench the reaction and remove residual radiolabeled substrate as ^14CO2. […]

ACC1 [1] = molecular target: T2, ACC1 (Homo sapiens, UniProt Q13085); assay: 14CO2 fixation ACC activity assay, ACC1; assay type: biochemical; conditions: 37° C., 40 minutes, pH 7.5, 20 mM citrate; read-out: Km of ACC1 against substrate
T2 construct: to produce a full length ACC1 cDNA clone; V5-His (vector pcDNA5/FRT/V5-His TOPO) (C); made in house; host or cells: Sf9 insect cells (baculovirus, pBacPAK9)
Description: ACC1 clone from Example 2 was digested with AvrII and PmeI restriction enzymes and then subcloned into pBacPAK9 (BD Biosciences, Mountainview, Calif.) transfer vector, which was then digested with XbaI and StuI for generating baculovirus. The viral particles were generated in Sf9 insect cells using the reagents and instructions provided by the BacPAK Baculovirus Expression System (BD Biosciences, Mountainview, Calif.).
The Sf9 cells were grown in Grace's Insect Cell Culture Medium (Invitrogen, Carlsbad, Calif.) containing 10% fetal bovine serum, 0.1 mg/ml kanamicin, and 0.1% PLURONIC® F-68 (Invitrogen, Carlsbad, Calif.) at 30° C. and 5% CO2. […]
as §2, §3

ACC2 [2] = molecular target: T3, ACC2 (Homo sapiens, UniProt O00763); assay: 14CO2 fixation ACC activity assay, ACC2; assay type: biochemical; conditions: 37° C., 40 minutes, pH 7.5, 20 mM citrate; read-out: Km of ACC2 against substrate
T3 construct: V5-His (vector pcDNA5/FRT/V5-His TOPO) (C); made in house; host or cells: mouse mammary carcinoma cell line FM-3A (pEF vector, G418 selection)
Excerpt: as §1, §2, §3

ACC2 [3] = conditions: cited from earlier work
ACC1 [4] = conditions: cited from earlier work
ACC = conditions: ESP 55016 converted to ESP 55016-CoA; cited from earlier work
[5] = system: fatty acid synthesis and fatty acid oxidation; conditions: cited from earlier work
[6] = rat model of diabetic dyslipidemia; cited from earlier work
ACCs from plants = conditions: cited from earlier work

T1 sequence (O00763 1-2256 isoform O00763-3 V1939I): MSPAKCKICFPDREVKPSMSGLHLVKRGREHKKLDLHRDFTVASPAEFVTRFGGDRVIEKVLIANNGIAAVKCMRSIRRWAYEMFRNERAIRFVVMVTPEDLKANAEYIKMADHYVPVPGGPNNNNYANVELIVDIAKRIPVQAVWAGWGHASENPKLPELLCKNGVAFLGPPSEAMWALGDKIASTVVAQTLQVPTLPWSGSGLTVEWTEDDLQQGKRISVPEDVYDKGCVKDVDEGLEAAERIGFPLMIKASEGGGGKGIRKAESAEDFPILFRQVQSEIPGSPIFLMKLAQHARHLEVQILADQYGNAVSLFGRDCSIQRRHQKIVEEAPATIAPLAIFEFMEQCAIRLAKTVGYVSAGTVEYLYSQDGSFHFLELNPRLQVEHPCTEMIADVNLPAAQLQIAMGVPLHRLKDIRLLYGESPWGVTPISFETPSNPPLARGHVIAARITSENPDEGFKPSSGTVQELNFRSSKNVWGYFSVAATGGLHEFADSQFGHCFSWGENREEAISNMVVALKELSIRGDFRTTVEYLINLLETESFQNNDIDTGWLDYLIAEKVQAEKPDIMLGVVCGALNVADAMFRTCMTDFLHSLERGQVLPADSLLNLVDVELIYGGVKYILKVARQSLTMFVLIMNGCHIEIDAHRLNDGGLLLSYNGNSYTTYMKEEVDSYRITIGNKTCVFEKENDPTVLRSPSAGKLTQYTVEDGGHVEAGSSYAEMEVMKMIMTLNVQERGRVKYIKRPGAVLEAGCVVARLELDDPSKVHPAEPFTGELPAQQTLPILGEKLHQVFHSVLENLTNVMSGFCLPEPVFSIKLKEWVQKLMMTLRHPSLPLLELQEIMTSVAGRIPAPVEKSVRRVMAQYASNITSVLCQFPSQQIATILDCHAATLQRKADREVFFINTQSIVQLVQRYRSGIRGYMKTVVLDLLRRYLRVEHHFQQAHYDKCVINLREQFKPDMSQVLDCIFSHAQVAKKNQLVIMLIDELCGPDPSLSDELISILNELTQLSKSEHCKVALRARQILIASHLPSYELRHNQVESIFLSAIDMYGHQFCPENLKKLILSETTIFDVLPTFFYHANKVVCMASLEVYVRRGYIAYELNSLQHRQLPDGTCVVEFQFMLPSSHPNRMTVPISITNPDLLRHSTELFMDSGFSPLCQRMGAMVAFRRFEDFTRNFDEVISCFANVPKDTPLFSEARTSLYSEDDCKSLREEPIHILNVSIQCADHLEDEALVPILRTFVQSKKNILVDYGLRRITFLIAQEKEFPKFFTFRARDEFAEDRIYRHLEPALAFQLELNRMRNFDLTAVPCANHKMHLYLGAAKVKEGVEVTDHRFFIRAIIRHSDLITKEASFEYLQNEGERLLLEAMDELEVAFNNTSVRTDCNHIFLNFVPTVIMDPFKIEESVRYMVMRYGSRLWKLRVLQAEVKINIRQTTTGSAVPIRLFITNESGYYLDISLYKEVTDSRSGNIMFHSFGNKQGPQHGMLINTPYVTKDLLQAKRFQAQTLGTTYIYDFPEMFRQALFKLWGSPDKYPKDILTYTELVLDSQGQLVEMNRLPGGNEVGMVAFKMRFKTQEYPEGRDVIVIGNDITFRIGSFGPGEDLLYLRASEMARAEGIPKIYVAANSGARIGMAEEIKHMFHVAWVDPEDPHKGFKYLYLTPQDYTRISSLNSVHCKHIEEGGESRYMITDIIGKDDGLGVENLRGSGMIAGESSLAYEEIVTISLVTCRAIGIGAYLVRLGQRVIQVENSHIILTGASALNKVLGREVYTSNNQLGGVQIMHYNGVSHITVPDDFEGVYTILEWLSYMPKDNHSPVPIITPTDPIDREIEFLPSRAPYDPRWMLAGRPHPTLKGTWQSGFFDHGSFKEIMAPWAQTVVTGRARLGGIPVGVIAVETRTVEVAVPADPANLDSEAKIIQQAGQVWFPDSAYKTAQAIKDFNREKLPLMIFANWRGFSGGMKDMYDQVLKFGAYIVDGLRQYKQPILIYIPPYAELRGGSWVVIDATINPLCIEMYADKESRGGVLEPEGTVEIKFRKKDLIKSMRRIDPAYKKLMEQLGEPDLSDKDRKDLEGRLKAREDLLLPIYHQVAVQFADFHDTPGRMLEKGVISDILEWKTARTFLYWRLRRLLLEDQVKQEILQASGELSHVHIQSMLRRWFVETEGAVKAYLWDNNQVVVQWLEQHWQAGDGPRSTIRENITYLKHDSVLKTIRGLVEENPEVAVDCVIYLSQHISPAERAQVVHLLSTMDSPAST
T3 sequence (O00763 whole entry): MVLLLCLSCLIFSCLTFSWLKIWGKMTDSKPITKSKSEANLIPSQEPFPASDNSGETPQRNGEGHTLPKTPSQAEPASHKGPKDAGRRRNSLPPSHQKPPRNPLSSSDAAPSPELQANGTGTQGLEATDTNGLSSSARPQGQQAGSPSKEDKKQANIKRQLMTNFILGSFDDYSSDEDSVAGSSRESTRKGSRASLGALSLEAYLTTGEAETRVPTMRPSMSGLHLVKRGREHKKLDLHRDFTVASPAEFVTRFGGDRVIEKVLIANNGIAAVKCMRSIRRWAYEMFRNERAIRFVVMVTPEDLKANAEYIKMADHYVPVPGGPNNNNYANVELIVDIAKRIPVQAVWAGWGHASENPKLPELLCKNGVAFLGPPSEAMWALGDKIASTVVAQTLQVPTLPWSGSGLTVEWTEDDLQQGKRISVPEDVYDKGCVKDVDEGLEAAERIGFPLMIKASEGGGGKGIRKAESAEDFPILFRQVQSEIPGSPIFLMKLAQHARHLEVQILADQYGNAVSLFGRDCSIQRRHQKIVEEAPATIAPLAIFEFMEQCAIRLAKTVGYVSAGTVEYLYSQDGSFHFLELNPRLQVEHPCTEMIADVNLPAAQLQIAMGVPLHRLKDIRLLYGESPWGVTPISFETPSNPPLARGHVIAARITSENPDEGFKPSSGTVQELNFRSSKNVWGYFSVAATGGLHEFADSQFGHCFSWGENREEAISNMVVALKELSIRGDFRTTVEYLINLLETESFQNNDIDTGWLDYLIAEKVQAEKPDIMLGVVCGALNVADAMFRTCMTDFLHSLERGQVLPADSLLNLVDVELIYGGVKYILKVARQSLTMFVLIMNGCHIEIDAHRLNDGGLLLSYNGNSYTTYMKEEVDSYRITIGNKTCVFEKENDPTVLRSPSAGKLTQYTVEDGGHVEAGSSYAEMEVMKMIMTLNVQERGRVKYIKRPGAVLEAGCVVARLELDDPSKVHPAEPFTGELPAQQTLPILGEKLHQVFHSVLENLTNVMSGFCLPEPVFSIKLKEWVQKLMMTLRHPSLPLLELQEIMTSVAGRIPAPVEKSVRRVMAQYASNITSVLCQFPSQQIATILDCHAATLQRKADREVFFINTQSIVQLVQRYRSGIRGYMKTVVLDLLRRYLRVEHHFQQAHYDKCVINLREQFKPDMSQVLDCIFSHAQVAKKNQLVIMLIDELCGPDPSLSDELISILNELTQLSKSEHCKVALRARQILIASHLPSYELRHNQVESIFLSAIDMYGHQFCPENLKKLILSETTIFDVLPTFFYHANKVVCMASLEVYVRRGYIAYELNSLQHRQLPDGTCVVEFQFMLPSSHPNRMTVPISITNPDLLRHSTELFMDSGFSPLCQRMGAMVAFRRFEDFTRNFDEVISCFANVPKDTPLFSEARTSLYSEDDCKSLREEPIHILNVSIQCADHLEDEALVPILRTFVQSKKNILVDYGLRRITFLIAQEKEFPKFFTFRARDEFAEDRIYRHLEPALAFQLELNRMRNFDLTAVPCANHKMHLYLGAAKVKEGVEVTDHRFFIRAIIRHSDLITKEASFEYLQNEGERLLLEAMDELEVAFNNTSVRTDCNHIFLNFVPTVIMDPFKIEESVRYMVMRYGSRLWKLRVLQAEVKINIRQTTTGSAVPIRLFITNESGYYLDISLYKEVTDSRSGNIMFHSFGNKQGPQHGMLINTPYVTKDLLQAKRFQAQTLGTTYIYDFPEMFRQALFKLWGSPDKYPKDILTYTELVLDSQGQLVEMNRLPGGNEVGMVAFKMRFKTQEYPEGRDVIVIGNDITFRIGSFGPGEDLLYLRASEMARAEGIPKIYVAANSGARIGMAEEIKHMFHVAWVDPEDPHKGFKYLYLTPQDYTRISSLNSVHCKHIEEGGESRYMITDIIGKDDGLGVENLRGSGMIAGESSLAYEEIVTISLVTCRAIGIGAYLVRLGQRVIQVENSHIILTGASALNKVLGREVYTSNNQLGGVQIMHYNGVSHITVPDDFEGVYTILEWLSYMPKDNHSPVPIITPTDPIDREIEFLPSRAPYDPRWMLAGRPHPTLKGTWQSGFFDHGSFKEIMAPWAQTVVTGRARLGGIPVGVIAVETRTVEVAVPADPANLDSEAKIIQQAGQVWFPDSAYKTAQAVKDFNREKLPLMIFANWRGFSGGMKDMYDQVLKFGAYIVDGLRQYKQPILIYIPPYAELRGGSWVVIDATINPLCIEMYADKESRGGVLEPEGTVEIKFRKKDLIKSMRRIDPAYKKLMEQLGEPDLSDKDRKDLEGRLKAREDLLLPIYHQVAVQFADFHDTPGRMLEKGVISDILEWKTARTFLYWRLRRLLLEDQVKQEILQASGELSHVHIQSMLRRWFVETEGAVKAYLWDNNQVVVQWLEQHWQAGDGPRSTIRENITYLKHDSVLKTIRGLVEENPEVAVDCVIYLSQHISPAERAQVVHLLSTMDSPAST

SMILES: Nc1ncnc2c1ncn2[C@@H]1O[C@H](COP(=O)(O)OP(=O)(O)OP(=O)(O)O)[C@@H](O)[C@H]1O [ATP]
Km (ACC2sv1): 109 µM
Km (ACC1 [1]): 54 µM
Km (ACC2 [2]): 44 µM

SMILES: CCN(CC)C(=O)[C@@H]1CCCN(C2CCN(C(=O)c3c4ccccc4cc4ccccc34)CC2)C1 [CP-610431]
Inhibition of ACC2 (ACC2 [3]): inhibit
Inhibition of ACC1 (ACC1 [4]): inhibit

SMILES: O=C(c1c2ccccc2cc2ccccc12)N1CCC(N2CCC[C@@H](C(=O)N3CCOCC3)C2)CC1 [CP-640186]
Inhibition of ACC2 (ACC2 [3]): inhibit
Inhibition of ACC1 (ACC1 [4]): inhibit

SMILES: CC(C)(CCCCCC(O)CCCCCC(C)(C)C(=O)SCCNC(=O)CCNC(=O)[C@H](O)C(C)(C)COP(=O)(O)OP(=O)(O)OC[C@H]1O[C@@H](n2cnc3c(N)ncnc32)[C@H](O)[C@@H]1OP(=O)(O)O)C(=O)O (some centres unmarked) [ESP 55016-CoA]
Inhibition of ACC activity (ACC): directly inhibits

SMILES: CC(C)(CCCCCC(O)CCCCCC(C)(C)C(=O)O)C(=O)O [ESP 55016]
Fatty acid oxidation [5]: enhanced
Fatty acid synthesis [5]: inhibited
Serum lipid levels [6]: favorably alter

Km (ACC2sv1): 6510 µM
Km (ACC1 [1]): 6470 µM
Km (ACC2 [2]): 2890 µM
SMILES: O=C(O)O [HCO3]

SMILES: CC(Oc1ccc(Oc2ccc(Cl)cc2Cl)cc1)C(=O)O (centres unmarked) [diclofop]
Inhibition of ACCs from plants (ACCs from plants): potent inhibitors

SMILES: CC(Oc1ccc(Oc2ncc(C(F)(F)F)cc2Cl)cc1)C(=O)O (centres unmarked) [haloxyfop]
Inhibition of ACCs from plants (ACCs from plants): potent inhibitors

SMILES: CCC/C(=N\OCC)C1=C(O)CC(CC(C)SCC)CC1=O (centres unmarked) [sethoxydim]
Inhibition of ACCs from plants (ACCs from plants): potent inhibitors
